{"source": "patent EP0315491A2", "about": "“Amino-substituted pyrylium dyes and uses thereof” (EASTMAN KODAK COMPANY (a New Jersey corporation), priority 1987, dated 1989)", "key": {"[1]": {"system": "human ovarian carcinoma line OVCAR-3", "test": "Ovarian carcinoma (OVCAR-3) test using nude mice protocol (survival, T/C)", "format": "in vivo", "conditions": "for T/C: female nude mice, OVCAR-3 xenograft, three injections per week for 6 weeks (Fig. 3)", "text": "The present invention will now be described by way of example with reference to the accompanying drawings in which: Figures 1-4 are survival plots of cancer-bearing mice treated with the dyes of this invention, compared to a control group of such mice left untreated. In these plots, \"% survival\" means the percentage of the total group (treated \"T\" or control \"C\") still surviving on the day in question. The 50% data point is selected for the T/C calculation, as being the point that is statistically meaningful. Nude mice, that is, those deficient in thymic functions, bred and maintained in pathogen free conditions [see J. Natl. Cancer Inst. 51:615-619 (1973)] were used in in vivo experiments. For each experiment, nude mice from the same litter and of the same sex which were over 3 months old and weighed at least 25g were injected or implanted with cancer cells. Examples 6 and 7 were repeated, except they were administered to female nude mice (aged 8-12 weeks) xenografted with human ovarian carcinoma line OVCAR-3. Eight mice in Example 6, and 8 mice in Example 7 were selected for treatment with the thiopyrylium, in an amount of 2.5 and 5 mg/kg respectively, administered IP 1 day after the cancer cells were injected. This was repeated as follows: Three injections per week for 6 weeks. Eight mice were used as the control group and were injected with 0.25 ml of 5% dextrose in water."}, "[2]": {"system": "human melanoma cell line, LOX", "test": "Melanoma test using nude mice protocol (survival, T/C)", "format": "in vivo", "text": "The present invention will now be described by way of example with reference to the accompanying drawings in which: Figures 1-4 are survival plots of cancer-bearing mice treated with the dyes of this invention, compared to a control group of such mice left untreated. In these plots, \"% survival\" means the percentage of the total group (treated \"T\" or control \"C\") still surviving on the day in question. The 50% data point is selected for the T/C calculation, as being the point that is statistically meaningful. Effectiveness against human cancer can be inferred by tests in the nude mouse-human xenograft model, hereinafter \"nude mice protocol\". […] 899-903, especially p. 889 (April 1985). Nude mice, that is, those deficient in thymic functions, bred and maintained in pathogen free conditions [see J. Natl. Cancer Inst. 51:615-619 (1973)] were used in in vivo experiments. For each experiment, nude mice from the same litter and of the same sex which were over 3 months old and weighed at least 25g were injected or implanted with cancer cells. A human melanoma cell line, LOX, was used that grows rapidly when inoculated into the peritoneal cavity of the athymic mice. Tumors which had been passaged subcutaneously in athymic mice were excised under sterile conditions and converted to a single cell suspension using a metal grid with a 4 mm mesh. Red blood cells were then lysed by incubation with 0.17 molar ammonium chloride at 4°C for 30 minutes. Cells were then scored for viability with trypan blue and 5 million viable cells made up in 0.2 ml of Dulbecco modified Eagles' medium (DME) were injected intraperitoneally (IP) into a group of male athymic Swiss nu/nu mice (day 0). The mice were then randomly allocated into treatment and control groups (5% dextrose) and treatment, by intraperitoneal injection commenced the following day. In Example 6, five mice received 5 mg/kg of the drug T-5, Table I, administered Monday, Wednesday & Friday of each week for a total of 11 injections. Five mice received the same volume of the control 5% dextrose solution on the same days. […]"}, "L1210 leukemia cells": {"system": "L1210 leukemia cells", "test": "In vitro IC50, suspension culture, cell count by Coulter Counter", "format": "cell-based", "conditions": "compound present for 48 hours (four cell doubling times), read-out: IC50 L1210 Mouse Lymphoma", "experimental": "(§1) Although these examples were not tested in animal models, their similar efficacy in human melanoma and differentiated carcinomas is predicated from the fact they had similar in vitro results compared to T-5. The in vitro tests were run as follows, to ascertain the IC₅₀ concentrations. (IC₅₀ is the in vitro concentration that kills one-half the cell line against which the compound is tested. The smaller the concentration, the higher the toxicity.)\n(§2) For the IC₅₀ values for the human lung carcinoma line, an adhering monolayer culture was used. Two days prior to plating, a number of cells obtained from the American Type Tissue Culture Collection was selected to grow as a stock, the number being that which would ensure the cells had not reached their plateau at the time of the in vitro test. On day 1 of the assay, asynchronous exponentially growing cells from this stock were suspended in a conventional complete medium comprising RPMI 1640 medium supplemented with 5% (v/v) fetal calf serum and 5% (v/v) NV serum obtained from Collaborative Research, and 20mM HEPES buffer, i.e., 4-(2-hydroxyethyl)-1-piperazineethanesulfonic acid. This was plated into a conventional 96-well tissue culture plate using a Cetus/Perkin Elmer automated pipetting device with a dual supply manifold. The cells were then incubated for 48 hours at 37°C in a humidified atmosphere containing 5% CO₂. Selected cells were then incubated under red light for 3 hours in the presence of varying amounts of the compound of interest at 37°C in a humidified incubator containing 5% CO₂. Compounds were tested over a 6-log range of concentrations. The drug treated cells were then rinsed one time with complete medium as set forth above, and incubated in complete medium the length of time appropriate to achieve four cell-doubling times (roughly 7 days for these cell lines). The medium was removed and the cells stained for 1-2 hours at 37°C with 0.1% (w/v) neutral red dye obtained from Eastman Kodak Co., dissolved in phosphate buffered saline (PBS) (without calcium or magnesium cations) at a pH of 6.85. The cells were rinsed twice with the same PBS and dried. Excess neutral red dye was eluted from each well with 50% (v/v) ethanol in 1% (v/v) aqueous glacial acetic acid. The absorbency of each well was quantitated using a Perkin-Elmer absorbence densitameter set at 540 nm. The percent of inhibition of cell growth for a given concentration of compound was calculated using the equation: [formula] where At = absorbence of the cells treated with the candidate drug, Au = absorbence of the control treated with solvent only, and Ab = absorbence of the media and well only (background). […] The plotted data was then fitted to the curve for the function: F(x) = 100 - [100(X/A)^B/(1+(X/A)^B)] where x = the concentration of the test compound, A = the IC₅₀ value (50% inhibition on the plot) and B = the exponent of the fitted function.\nTo determine the IC₅₀ for the L1210 leukemia cells, a suspension culture was used. The procedure for the monolayer culture was followed, except that the cells were seeded at a density of 3 X 10⁴ cells/ml in the RPMI 1640 medium supplemented this time with 10% (v/v) NV SERUM, no calf serum, and 20mM HEPES buffer, with the compound of interest already added. These were added immediately to a conventional 24-well culture plate and incubated for a four cell doubling time (48 hours for this cell line). Cell numbers were quantitated using the Model ZF Coulter Counter. F(x) was obtained from the equation: [formula] where Nt = number of treated cells detected, never less than No, Nu = number of cells detected in the control that were untreated except for the solvent, and No = number of cells initially seeded."}, "[3]": {"system": "human lung carcinoma line", "test": "In vitro IC50, adhering monolayer culture, neutral red staining", "format": "cell-based", "conditions": "3 hours drug exposure under red light, then about 7 days growth, read-out: IC50 Lung Adeno-carcinoma", "experimental": "as §1, §2"}, "MB49 tumor cells [4]": {"system": "MB49 tumor cells", "test": "Mouse bladder carcinoma, tumor cells and drug given IP (survival, T/C)", "format": "in vivo", "conditions": "normal male BDFI mice, MB49 cells IP", "text": "The present invention will now be described by way of example with reference to the accompanying drawings in which: Figures 1-4 are survival plots of cancer-bearing mice treated with the dyes of this invention, compared to a control group of such mice left untreated. In these plots, \"% survival\" means the percentage of the total group (treated \"T\" or control \"C\") still surviving on the day in question. The 50% data point is selected for the T/C calculation, as being the point that is statistically meaningful. MB49 tumor cells, that is, mouse carcinoma cells induced by the carcinogen 7,12-dimethyl benz[a]anthracene, were obtained by conventional processes and injected intraperitoneally into normal male BDFI mice (5 million/mouse). Each drug treated group and control group had 5 mice. In example 8, 5 mg/kg of T-5 was administered 3 times per week for three weeks, starting Day 1. In Example 9, it was 3 mg/kg three times per week for 3 weeks."}, "MB49 tumor cells [5]": {"system": "MB49 tumor cells", "test": "Mouse bladder carcinoma, tumor cells mixed with drug before instillation into the bladder (bladder weight)", "format": "in vivo", "conditions": "21 days after tumor initiation; from mean bladder weights vs controls; MB49 cells (4 X 10⁶) mixed with 0.05 mg/ml drug before instillation into the mouse bladder", "experimental": "These values were calculated by dividing the difference between the mean weight of bladders from controls (water-treated animals) and mean weight of bladders of drug-treated animals by the mean weight of bladders from control animals and multiplying this fraction by 100. (In this experiment, the drug was administered by mixing the MB49 tumor cells (4 X 10⁶) with 0.05 mg/ml of the drug prior to instillation of the cell suspension into the mouse bladder.)"}}, "note": "Like-named read-outs stand apart in the source and are kept apart here."}
{"compound": "CN(C)c1ccc(-c2cc(-c3ccccc3)[s+]c(-c3ccccn3)c2)cc1", "note": "[4-(4-N,N-dimethylaminophenyl-2-phenyl-6-(2-pyridyl)thiopyrylium chloride, reference compound]", "values": [{"measurement": "T/C against the ovarian carcinoma", "setting": "[1]; comparative example, xenografted human ovarian cancer, very similar procedures, dose not stated, also listed in the Related Application", "value": 340, "unit": "%"}, {"measurement": "T/C against melanoma", "setting": "[2]; comparative example, xenografted human melanoma, very similar procedures, dose not stated, also listed in the Related Application", "value": 227, "unit": "%"}]}
{"compound": "CN(C)c1ccc(-c2cc(-c3cccc(N)c3)[s+]c(-c3cccc(N)c3)c2)cc1", "note": "[Compound T-1, 2,6-Bis(3-aminophenyl)-4-[4-(dimethyl-amino)phenyl]thiopyrylium chloride]", "values": [{"measurement": "IC50", "setting": "L1210 leukemia cells; Mus musculus, L1210, 48 h", "value": 38, "unit": "nM"}, {"measurement": "IC50", "setting": "[3]; Homo sapiens", "value": 370, "unit": "nM"}]}
{"compound": "Nc1ccc(-c2cc(-c3ccc(N)cc3)[s+]c(-c3ccc(N)cc3)c2)cc1", "note": "[Compound T-2, 2,4,6-Tris(4-aminophenyl)thiopyrylium chloride]", "values": [{"measurement": "IC50", "setting": "L1210 leukemia cells; Mus musculus, L1210, 48 h", "value": 270, "unit": "nM"}, {"measurement": "IC50", "setting": "[3]; Homo sapiens", "value": 190, "unit": "nM"}]}
{"compound": "Nc1ccc(-c2cc(-c3ccccc3)cc(-c3ccc(N)cc3)[s+]2)cc1", "note": "[Compound T-3, 2,6-Bis(4-aminophenyl)-4-phenylthiopyrylium chloride]", "values": [{"measurement": "IC50", "setting": "L1210 leukemia cells; Mus musculus, L1210, 48 h", "value": 33, "unit": "nM"}, {"measurement": "IC50", "setting": "[3]; Homo sapiens", "value": 17, "unit": "nM"}]}
{"compound": "COc1ccc(-c2cc(-c3ccc(N)cc3)[s+]c(-c3ccc(N)cc3)c2)cc1", "note": "[Compound T-4, 2,6-Bis(4-aminophenyl)-4-(4-methoxyphenyl)-thiopyrylium chloride]", "values": [{"measurement": "IC50", "setting": "L1210 leukemia cells; Mus musculus, L1210, 48 h", "value": 10, "unit": "nM"}, {"measurement": "IC50", "setting": "[3]; Homo sapiens", "value": 11, "unit": "nM"}]}
{"compound": "CN(C)c1ccc(-c2cc(-c3ccc(N)cc3)[s+]c(-c3ccc(N)cc3)c2)cc1.[Cl-]", "note": "[Compound T-5, 2,6-Bis(4-aminophenyl)-4-[4-(N,N-dimethyl-amino)phenyl]thiopyrylium chloride]", "values": [{"measurement": "T/C", "setting": "[1]; 2.5 mg/kg IP", "value": "> 450", "unit": "%"}, {"measurement": "T/C", "setting": "[1]; 5 mg/kg IP", "value": "> 450", "unit": "%"}, {"measurement": "T/C", "setting": "MB49 tumor cells [4]; 3 mg/kg three times per week for 3 weeks (Example 9, Fig. 4)", "value": 344, "unit": "%"}, {"measurement": "T/C", "setting": "MB49 tumor cells [4]; 5 mg/kg 3 times per week for three weeks (Example 8, Fig. 4)", "value": 244, "unit": "%"}, {"measurement": "IC50", "setting": "L1210 leukemia cells; Mus musculus, L1210, 48 h", "value": 220, "unit": "nM"}, {"measurement": "IC50", "setting": "L1210 leukemia cells", "value": 140, "unit": "nM"}, {"measurement": "T/C", "setting": "[2]; male athymic Swiss nu/nu mice, LOX cells IP, 5 mg/kg IP Monday, Wednesday & Friday, 11 injections, 50% survival point (Fig. 1)", "value": 366, "unit": "%"}, {"measurement": "Survival (T/C)", "setting": "[2]; male athymic Swiss nu/nu mice, LOX cells IP, 8 mg/kg IP Wednesday and Saturday for 3 weeks (Fig. 2)", "value": 338, "unit": "%"}, {"measurement": "IC50", "setting": "[3]", "value": "60 to 80", "unit": "nM"}, {"measurement": "IC50", "setting": "[3]; Homo sapiens", "value": 40, "unit": "nM"}]}
{"compound": "CN(C)c1ccc(-c2cc(-c3ccccc3)[s+]c(-c3ccc(N(C)C)cc3)c2)cc1", "note": "[Compound T-6]", "values": [{"measurement": "average inhibition in tumor growth", "setting": "MB49 tumor cells [5]", "value": 21.6, "unit": "%"}]}
